According to patent publication US20160271160A1, “HCV POLYMERASE INHIBITORS” (MEDIVIR AB, priority 2013, published 2016):

tested on: HCV type 1b replicon in Huh-7 luc/neo (Huh-Luc) cells; test: HCV replicon assay (Huh-Luc, luciferase readout); type: cell-based; settings: Hepatitis C virus, Huh-7, 72 h
From the text: The compounds of formula I may be examined for activity in the inhibition of HCV RNA replication in a cellular assay aimed at identifying compounds that inhibit a HCV functional cellular replicating cell line, also known as HCV replicons. A suitable cellular assay is based on a bicistronic expression construct, as described by Lohmann et al. (1999), Science vol. 285 pp. 110-113 with modifications described by Krieger et al. (2001), Journal of Virology 75: 4614-4624, in a multi-target screening strategy.
The assay utilizes the stably transfected cell line Huh-7 luc/neo (hereafter referred to as Huh-Luc). This cell line harbours an RNA encoding a bicistronic expression construct comprising the wild type NS3-NS5B regions of HCV type 1b translated from an Internal Ribosome Entry Site (IRES) from encephalomyocarditis virus (EMCV), preceded by a reporter portion (FfL-luciferase), and a selectable marker portion (neo^R, neomycine phosphotransferase). The construct is bordered by 5′ and 3′ NTRs (non-translated regions) from HCV type 1b. Continued culture of the replicon cells in the presence of G418 (neo^R) is dependent on the replication of the HCV RNA. The stably transfected replicon cells that express HCV RNA, which replicates autonomously and to high levels, encoding inter alia luciferase, are used for screening the antiviral compounds.
The replicon cells are plated in 384 well plates in the presence of the test and control compounds which are added in various concentrations. Following an incubation of three days. HCV replication is measured by assaying luciferase activity (using standard luciferase assay substrates and reagents and a Perkin Elmer ViewLux™ ultraHTS microplate imager). Replicon cells in the control cultures have high luciferase expression in the absence of any inhibitor. The inhibitory activity of a compound on luciferase activity is monitored on the Huh-Luc cells, enabling a dose-response curve for each test compound. EC50 values are then calculated, which value represents the amount of the compound required to decrease the level of detected luciferase activity by 50%, or more specifically, the ability of the genetically linked HCV replicon RNA to replicate, […]

With `CC(C)OC(=O)[C@H](C)NP(=S)(OC[C@H]1O[C@@H](n2ccc(=O)[nH]c2=O)C(Cl)(Cl)[C@@H]1O)Oc1ccccc1` (stereo partly drawn) [Example 13, (2S)-Isopropyl 2-(((((2R,3R,5R)-4,4-Dichloro-5-(2,4-dioxo-3,4-dihydropyrimidin-1(2H)-yl)-3-hydroxytetrahydrofuran-2-yl)methoxy)(phenoxy)phosphorothioyl)amino)propanoate] as the molecule, how does the EC50 read?
The EC50 was 5400 nM.

same assay, conditions: Hepatitis C virus, Huh-7, 72 h; HCV type 1b replicon, Huh-Luc cells, three days incubation, luciferase; read-out: EC50

With `CC(C)OC(=O)[C@@H](C)NP(=O)(OC[C@H]1O[C@@H](n2ccc(=O)[nH]c2=O)C(Cl)(Cl)[C@@H]1O)Oc1ccccc1` (stereo partly drawn) [Example 14, (2R)-Isopropyl 2-(((((2R,3R,5R)-4,4-dichloro-5-(2,4-dioxo-3,4-dihydropyrimidin-1(2H)-yl)-3-hydroxytetrahydrofuran-2-yl)methoxy)(phenoxy)phosphoryl)amino)propanoate] as the molecule, how does the EC50 read?
Its EC50 is 5700 nM.

With `O=c1ccn([C@@H]2O[C@H](CO)[C@@H](O)C2(Cl)Cl)c(=O)[nH]1` [Example 1, 1-((2R,4R,5R)-3,3-dichloro-4-hydroxy-5-(hydroxymethyl)tetrahydrofuran-2-yl)pyrimidine-2,4(1H,3H)-dione] as the molecule, how does the EC50 read?
The EC50 was over 50000 nM.

For `CC(C)OC(=O)[C@H](C)NP(=O)(OC[C@H]1O[C@@H](n2ccc(=O)[nH]c2=O)C(Cl)(Cl)[C@@H]1O)Oc1ccc(C2(C)CC2)cc1` (stereo partly drawn) [Example 9, (2S)-Isopropyl 2-(((((2R,3R,5R)-4,4-dichloro-5-(2,4-dioxo-3,4-dihydropyrimidin-1(2H)-yl)-3-hydroxytetrahydrofuran-2-yl)methoxy)(4-(1-methylcyclopropyl)phenoxy)phosphoryl)-amino)propanoate], which EC50 is on record?
The EC50 was 360 nM.

For `CC(C)OC(=O)[C@H](C)NP(=O)(OC[C@H]1O[C@@H](n2ccc(N)nc2=O)C(Cl)(Cl)[C@@H]1O)Oc1ccccc1` (stereo partly drawn) [Example 12, (2S)-isopropyl 2-(((((2R,3R,5R)-5-(4-Amino-2-oxopyrimidin-1(2H)-yl)-4,4-dichloro-3-hydroxytetrahydrofuran-2-yl)methoxy)(phenoxy)phosphoryl)amino)propanoate], which EC50 is on record?
Its EC50 is 170 nM.

For `C[C@H](NP(=O)(OC[C@H]1O[C@@H](n2ccc(=O)[nH]c2=O)C(Cl)(Cl)[C@@H]1O)Oc1ccccc1)C(=O)OC1CCCCC1` (stereo partly drawn) [Example 5, (2S)-Cyclohexyl 2-(((((2R,3R,5R)-4,4-dichloro-5-(2,4-dioxo-3,4-dihydropyrimidin-1(2H)-yl)-3-hydroxytetrahydrofuran-2-yl)methoxy)(phenoxy)phosphoryl)amino)propanoate], which EC50 is on record?
The EC50 was 160 nM.

With `CC[C@@H](C)OC(=O)[C@H](C)NP(=O)(OC[C@H]1O[C@@H](n2ccc(=O)[nH]c2=O)C(Cl)(Cl)[C@@H]1O)Oc1ccccc1` (stereo partly drawn) [Example 4, (2S)—(R)-Sec-butyl 2-(((((2R,3R,5R)-4,4-dichloro-5-(2,4-dioxo-3,4-dihydropyrimidin-1(2H)-yl)-3-hydroxytetrahydrofuran-2-yl)methoxy)(phenoxy)phosphoryl)amino)propanoate] as the molecule, how does the EC50 read?
The EC50 was 150 nM.

With `CC(C)OC(=O)[C@H](C)NP(=O)(OC[C@H]1O[C@@H](n2ccc(=O)[nH]c2=O)C(Cl)(Cl)[C@@H]1O)Oc1cccc(C2(C)CC2)c1` (stereo partly drawn) [Example 8, (2S)-Isopropyl 2-(((((2R,3R,5R)-4,4-dichloro-5-(2,4-dioxo-3,4-dihydropyrimidin-1(2H)-yl)-3-hydroxytetrahydrofuran-2-yl)methoxy)(3-(1-methylcyclopropyl)phenoxy)phosphoryl)amino)propanoate] as the molecule, how does the EC50 read?
Its EC50 is 230 nM.

For `CC(C)OC(=O)[C@H](C)NP(=O)(OC[C@H]1O[C@@H](n2ccc(=O)[nH]c2=O)C(Cl)(Cl)[C@@H]1O)Oc1cccc(C2CCC2)c1` (stereo partly drawn) [Example 7, (2S)-isopropyl 2-(((3-cyclobutylphenoxy)(((2R,3R,5R)-4,4-dichloro-5-(2,4-dioxo-3,4-dihydropyrimidin-1(2H)-yl)-3-hydroxytetrahydrofuran-2-yl)methoxy)phosphoryl)amino)propanoate], which EC50 is on record?
Its EC50 is 220 nM.

Which EC50 does the source give for `CC[C@H](C)OC(=O)[C@H](C)NP(=O)(OC[C@H]1O[C@@H](n2ccc(=O)[nH]c2=O)C(Cl)(Cl)[C@@H]1O)Oc1ccccc1` (stereo partly drawn) [Example 6, (2S)—(S)-sec-butyl 2-(((((2R,3R,5R)-4,4-dichloro-5-(2,4-dioxo-3,4-dihydropyrimidin-1(2H)-yl)-3-hydroxytetrahydrofuran-2-yl)methoxy)(phenoxy)phosphoryl)amino)propanoate] here?
The EC50 was 100 nM.

For `Nc1ccn([C@@H]2O[C@H](CO)[C@@H](O)C2(Cl)Cl)c(=O)n1` [Example 11, 4-Amino-1-((2R,4R,5R)-3,3-dichloro-4-hydroxy-5-(hydroxymethyl)tetrahydrofuran-2-yl)pyrimidin-2(1H)-one], which EC50 is on record?
The EC50 was 13000 nM.

target: HCV NS5B-21 (UniProt Q9WMX2); test: HCV NS5B-21 SPA enzyme assay; type: biochemical; settings: triphosphate tested
Procedure: It is this triphosphate which is believed to be the antivirally active species. The enzyme assay described here may be used to confirm that compounds of the invention are antivirally active as the 5-triphosphate metabolite.
The enzyme assay measures the inhibitory effect of triphosphate compounds in an HCV NS5B-21 (21-amino acid C-terminally truncated version) SPA assay (scintillation proximity assay). The assay is performed by evaluating the amount of radiolabelled ATP incorporated by HCV NS5B-21 into newly synthesized RNA using an heterogeneous biotinylated RNA template.
To determine IC50 values the compounds are tested at various concentrations in a final volume of 100 μl of reaction mixture. The reaction is stopped by addition of 0.5M EDTA solution. The samples are transferred into flashplates precoated with streptavidin. The incorporated radioactivity is quantified using a scintillation counter (Wallac Microbeta Trilux).
The assay should include enzyme controls (about four, containing 1 μl DMSO instead of inhibitor) and background control containing all ingredients except template.
Compounds are serially diluted in DMSO on a separate dilution plate to 100× the final desired assay concentrations. […]
Incubate the plate over night and read the flash plate in the Microbeta Trilux using the protocol Flash plates H3.
IC50 is determined using Graphpad Prism. […]

HCV NS5B-21, sequence (Q9WMX2 2420-3010): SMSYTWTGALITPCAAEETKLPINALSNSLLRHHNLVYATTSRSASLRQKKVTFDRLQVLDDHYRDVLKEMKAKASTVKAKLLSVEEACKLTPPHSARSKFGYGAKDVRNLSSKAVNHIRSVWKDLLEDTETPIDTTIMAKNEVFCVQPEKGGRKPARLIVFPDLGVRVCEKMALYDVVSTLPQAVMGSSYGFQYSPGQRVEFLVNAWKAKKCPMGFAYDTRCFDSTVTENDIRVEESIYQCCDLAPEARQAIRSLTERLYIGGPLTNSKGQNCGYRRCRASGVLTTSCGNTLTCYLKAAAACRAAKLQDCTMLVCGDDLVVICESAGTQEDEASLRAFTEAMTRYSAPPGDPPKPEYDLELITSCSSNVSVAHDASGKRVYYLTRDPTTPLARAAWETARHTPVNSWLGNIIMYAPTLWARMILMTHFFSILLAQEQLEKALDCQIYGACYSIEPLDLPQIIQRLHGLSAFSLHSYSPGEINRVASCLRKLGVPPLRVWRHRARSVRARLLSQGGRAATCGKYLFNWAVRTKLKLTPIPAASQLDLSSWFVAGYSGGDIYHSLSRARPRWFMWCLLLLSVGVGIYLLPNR

With `O=c1ccn([C@@H]2O[C@H](COP(=O)(O)OP(=O)(O)OP(=O)(O)O)[C@@H](O)C2(Cl)Cl)c(=O)[nH]1` [Example 3, Lithium((2R,3R,5R)-4,4-dichloro-5-(2,4-dioxo-3,4-dihydropyrimidin-1(2H)-yl)-3-hydroxytetrahydrofuran-2-yl)methyl triphosphate] as the molecule, how does the Ki read?
The Ki was 1600 nM.

With `Nc1ccn([C@@H]2O[C@H](COP(=O)(O)OP(=O)(O)OP(=O)(O)O)[C@@H](O)C2(Cl)Cl)c(=O)n1` [Example 17, ((2R,3R,5R)-5-(4-Amino-2-oxopyrimidin-1(2H)-yl)-4,4-dichloro-3-hydroxytetrahydrofuran-2-yl)methyl tetrahydrogen triphosphate] as the molecule, how does the Ki read?
The Ki was 170 nM.

tested on: genotype 1b HCV replicon; test: not given; settings: from WO 2012/142085; cited from earlier work

Which EC50 does the source give for `CC1(Cl)C(O)C(CO)OC1n1ccc(N)nc1=O` (stereo not drawn) [corresponding nucleoside] here?
Its EC50 is 10000 nM.

Which EC50 does the source give for `CC(C)OC(=O)[C@H](C)OP(=O)(OC[C@H]1O[C@@H](n2ccc(N)nc2=O)[C@](C)(Cl)[C@@H]1O)Oc1ccccc1` (stereo partly drawn) [compound 8 of Merck WO2012/142085] here?
The EC50 was 34000 nM.
